Data as given in US20200206344A1, “METHODS FOR MODULATING THE INTERACTION BETWEEN EWS-FLI1 AND BAF COMPLEXES” (Dana-Farber Cancer Institute, Inc., priority 2017, published 2020).
Values belong to the molecule of their own block, whether it stands above or below them.

Experiments:
EWS-FLI1 [1] = test: Biotinylated isoxazole-mediated precipitation; assay type: biochemical
Experimental: (§1) These assays were performed as previously described (Kato et al., 2012) with slight modifications. Biotinylated isoxazole (b-isox, Sigma-Aldrich) was reconstituted in DMSO. Briefly, 5-10 million cells were resuspended in 1 mL lysis buffer (20 mM Tris-HCl pH 7.4, 150 mM NaCl, 5 mM MgCl2, 0.5% NP-40 and 10% glycerol supplemented with 1× Protease/Phosphatase inhibitors (Pierce), 0.1 mM PMSF and 20 mM betamercaptoethanol) and incubated for 30 minutes with rotation at +4° C. Protein supernatant was then collected after centrifugation for 15 min at 14000 rpm+4° C. A 5% whole cell extract (WCE) control was collected and the remaining proteins were divided into four aliquots before addition of biotinylated isoxazole at 0, 10, 30 100 uM final concentrations. 100 μg/mL RNase A (Life Technologies) was used for RNase treatment experiments. The Reaction solutions were incubated at +4° C. for 1 h with rotation and centrifuged for 15 min at 14000 rpm+4° C. Supernatant was saved for further analysis and pellets were washed twice in supplemented Lysis buffer before resuspension in Laemmli buffer. WCE, pellets and supernatants were analyzed by 4%-12% Tris-Glycine gradient gels (Life Technologies) and Western blotting was performed using standard protocols.

wild-type FLI1 = target: T1, wild-type FLI1 (Homo sapiens, UniProt Q01543); test: Biotinylated isoxazole-mediated precipitation; assay type: biochemical; details: U2OS osteosarcoma cell lysates
T1 construct: expressed in transfected cells; host or cells: U2OS osteosarcoma cells, lentiviral expression
T1 sequence (Q01543 1-452): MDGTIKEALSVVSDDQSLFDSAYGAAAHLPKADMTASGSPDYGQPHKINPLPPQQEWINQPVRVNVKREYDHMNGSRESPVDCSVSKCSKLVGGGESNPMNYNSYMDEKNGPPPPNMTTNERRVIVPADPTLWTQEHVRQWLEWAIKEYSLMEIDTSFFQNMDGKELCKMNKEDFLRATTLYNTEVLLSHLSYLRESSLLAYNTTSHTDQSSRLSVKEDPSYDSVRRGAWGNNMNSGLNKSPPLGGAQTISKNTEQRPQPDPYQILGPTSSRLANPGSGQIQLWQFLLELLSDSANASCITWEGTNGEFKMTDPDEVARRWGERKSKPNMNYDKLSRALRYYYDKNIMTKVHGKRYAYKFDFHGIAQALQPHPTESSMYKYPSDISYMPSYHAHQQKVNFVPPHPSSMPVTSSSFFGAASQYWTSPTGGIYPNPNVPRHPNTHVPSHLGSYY
Experimental: as §1

EWS-FLI1 [2] = test: BAF155 ChIP-seq after shRNA knockdown of EWS-FLI1; assay type: cell-based; details: SK-N-MC cells, versus shGFP
Target sequence in this assay (as listed by the source): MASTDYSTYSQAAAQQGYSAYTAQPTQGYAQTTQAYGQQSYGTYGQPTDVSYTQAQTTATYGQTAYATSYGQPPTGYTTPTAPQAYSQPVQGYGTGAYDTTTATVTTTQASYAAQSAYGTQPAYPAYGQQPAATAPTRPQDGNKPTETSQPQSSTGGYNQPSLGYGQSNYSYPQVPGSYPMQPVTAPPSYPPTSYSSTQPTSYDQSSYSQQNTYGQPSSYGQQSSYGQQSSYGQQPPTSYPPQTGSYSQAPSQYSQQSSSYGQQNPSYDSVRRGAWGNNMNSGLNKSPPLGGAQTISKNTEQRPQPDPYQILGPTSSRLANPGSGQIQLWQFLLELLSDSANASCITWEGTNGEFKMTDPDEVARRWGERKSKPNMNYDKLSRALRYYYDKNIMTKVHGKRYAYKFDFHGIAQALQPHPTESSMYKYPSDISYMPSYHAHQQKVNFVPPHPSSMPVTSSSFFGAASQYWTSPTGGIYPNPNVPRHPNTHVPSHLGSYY

[3] = target: mSWI/SNF (BAF) complexes (human); test: cell-based or functional assay
[4] = target: mSWI/SNF (BAF) complexes (human); test: partial urea denaturation of nuclear extracts before anti-EWSR1 immunoprecipitation, immunoblot
EWS(YS37)-FLI1 = target: T2, EWS(YS37)-FLI1 (human); test: co-immunoprecipitation with anti-V5 antibodies, HEK-293-T cells co-expressing HA- and V5-tagged proteins
T2 construct: EWS-FLI1 with all 37 tyrosines of the prion-like domain changed to serine; also called EWS(Y37)-FLI1; EWS(YS37)-FLI1 mutant protein
T2 chain: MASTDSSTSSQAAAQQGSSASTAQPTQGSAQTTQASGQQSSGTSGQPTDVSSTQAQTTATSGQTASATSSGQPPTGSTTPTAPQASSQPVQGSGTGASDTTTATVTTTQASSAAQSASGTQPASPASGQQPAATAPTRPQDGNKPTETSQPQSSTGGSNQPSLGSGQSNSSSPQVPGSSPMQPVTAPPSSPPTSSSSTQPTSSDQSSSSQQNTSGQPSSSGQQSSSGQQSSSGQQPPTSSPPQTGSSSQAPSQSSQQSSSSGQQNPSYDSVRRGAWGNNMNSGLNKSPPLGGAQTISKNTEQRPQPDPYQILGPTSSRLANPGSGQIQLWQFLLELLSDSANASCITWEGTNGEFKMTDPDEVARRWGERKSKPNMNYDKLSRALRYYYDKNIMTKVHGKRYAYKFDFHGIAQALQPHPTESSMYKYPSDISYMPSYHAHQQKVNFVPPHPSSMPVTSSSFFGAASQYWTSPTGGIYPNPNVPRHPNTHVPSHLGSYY

Molecule: O=C1N[C@H]2[C@H](CS[C@H]2CCCCC(=O)OCCCCCCNC(=O)c2cc(-c3cccs3)on2)N1 [b-isox, biotinylated isoxazole]
precipitation of EWS-FLI1 (EWS-FLI1 [1]; 100 uM b-isox, Ewing sarcoma cell lysates): precipitates
precipitation of EWS-FLI1, dose dependence (EWS-FLI1 [1]; Ewing sarcoma cell lysates, b-isox 0, 10, 30, 100 uM): dose-dependent
precipitation of lentivirally expressed EWS-FLI1 (EWS-FLI1 [1]; U2OS osteosarcoma cell lysates): precipitates
precipitation of lentivirally expressed wild-type FLI1 (wild-type FLI1): but not wild-type FLI1

Molecule: shEWS-FLI1: shRNA, target FLI1, position 1917, sequence CGTCATGTTCTGGTTTGAGAT
BAF155 occupancy at EWS-FLI1 bound GGAA repeats (EWS-FLI1 [2]): decreased specifically at GGAA repeat regions

Next, values leading:

BAF155 ChIP-seq peak occupancy at EWS-FLI1-bound GGAA repeats, SK-N-MC cells [3]: 2 fold
Molecule: EWS-FLI1 fusion protein

urea concentration at which the interactions were decreased [4]: 0.5 M
Molecule: wild-type EWSR1 (from UniProt Q01844 1-656)

binding result (EWS(YS37)-FLI1): binds
B1: HA-tagged EWS(YS37)-FLI1 (other, not shown: small tags and cut ends)
chain: T2 chain
notes: also called HA-tagged mutant EWS-FLI1
